Test [1] has as its target T1, PKG-1α (Homo sapiens, UniProt Q13976).
T1 sequence (Q13976 2-671): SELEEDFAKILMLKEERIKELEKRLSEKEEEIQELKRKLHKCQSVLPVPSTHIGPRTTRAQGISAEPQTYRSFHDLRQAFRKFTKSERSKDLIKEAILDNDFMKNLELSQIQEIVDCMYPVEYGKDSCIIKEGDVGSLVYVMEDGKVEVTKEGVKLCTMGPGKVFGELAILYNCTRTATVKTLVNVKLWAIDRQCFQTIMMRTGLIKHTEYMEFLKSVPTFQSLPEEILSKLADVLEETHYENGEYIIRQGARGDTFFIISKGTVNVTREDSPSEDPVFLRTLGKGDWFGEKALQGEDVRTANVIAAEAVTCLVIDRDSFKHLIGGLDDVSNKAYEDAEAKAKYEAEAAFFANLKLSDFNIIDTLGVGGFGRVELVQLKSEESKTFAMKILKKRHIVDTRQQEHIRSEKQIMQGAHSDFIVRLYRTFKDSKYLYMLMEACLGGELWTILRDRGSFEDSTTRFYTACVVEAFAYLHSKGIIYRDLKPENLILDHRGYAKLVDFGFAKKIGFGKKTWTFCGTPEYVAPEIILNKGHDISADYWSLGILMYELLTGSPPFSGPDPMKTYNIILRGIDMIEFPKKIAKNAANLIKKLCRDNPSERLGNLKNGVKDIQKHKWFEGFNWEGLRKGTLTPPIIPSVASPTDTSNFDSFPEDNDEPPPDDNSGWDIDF
Description: [3H]cGMP binding assay on immunopurified PKG-1α. The arrangement: an expression plasmid containing a full length WT-PKG-1α cDNA; made in house; host or cells: HEK-293T; the results paragraph b304 says PASMC. To be noted: WT-PKG-1α; SIN-1 treatment. The method, then: HEK-293T cells were transiently transfected with either the WT-PKG-1α or the Y247FPKG-1α cDNA using Effectene transfection reagent (Qiagen), according to the manufacturer's instructions. Briefly, the cells were split the day before the transfection to low cell densities (25%) and were transfected 24 h later. After 48 h of transfection, the cells were incubated in DMEM serum free media containing 1% FBS and antibiotics for 4 h and then treated with or without SIN-1 (500 μM), for 30 min. This method produced an approximate 70% transfection efficiency of HEK-293T cells, as measured using green fluorescent protein vectors. […]
The batches of supernatant were pooled, and 2 μg of anti-PKG-1α antibody per mg of protein were added to the extract and rocked at 4° C. […] After 15 min of agitation at 4° C., the beads were pelleted by centrifugation, and the supernatant containing the PKG-1α protein was collected, quantified using Bradford reagent, and stored at −80° C.
To assay the binding of cGMP to WT- and Y247F-PKG-1α the enzymes were saturated with cGMP by incubating 50 μl aliquots of the diluted PKG constructs for 60 min at room temperature with 50 μl of [^3H]cGMP and 150 μl of cGMP-binding assay mixture (25 mM K2HPO4, 25 mM KH2PO4, 1 mM EDTA, pH 6.8, 2M NaCl, 200 μM 3-isobutyl-1-methylxanthine). […] The dissociation constant (Kd) values were determined using GraphPad Prism graphics. […]

Test [2] relates to PKG-1α. Put plainly: PKG-1α protein levels in transfected PASMC (Western blot). It counts as cell-based, lamb. As to conditions: SIN-1 500 μM, 48 h. The method, then: Therefore, the effect of these events were investigated in PASMC transiently transfected with expression plasmids containing WT- and Y247F-PKG-1α. The effect of nitration on pulmonary arterial smooth muscle cell (PASMC) growth and metabolism was determined. PASMC were transiently transfected with expression plasmids containing WT-PKG-1α, Y247F-PKG-1α or pDEST40 (as a control) for 20 h. Cells were then exposed or not to SIN-1 (500 μM, 48 h) and the effect on PKG protein levels (FIG. 2A) and activity determined (FIG. 2B).
In general terms: A western blot detects proteins with antibodies after separation by electrophoresis.

Turning to “3-morpholinosydnonimine N-ethylcarbamide [SIN-1]”, the “maximal [3H]cGMP binding” value on PKG-1α [1] is “significantly attenuated”. In addition, the PKG-1α protein levels result in the test with PKG-1α [2] is reported as “no effect”.

The values are drawn from patent US9551711B2, “Compositions and methods for detecting nitration of PKG-1α and methods of use thereof” (Augusta University Research Institute, Inc., priority 2013, dated 2017).
